In patent publication US20120077732A1, “CYCLIC PEPTIDES AND USES THEREOF” (SYDNEY WEST AREA HEALTH SERVICE, priority 2008, published 2012):
≈ marks a conversion by molar mass, not a printed value. Where two headings read alike, the source gives them in different places.

Columns and labels:
E. coli = assay: Standard disk susceptibility testing (NCCLS), E. coli; type: cell-based
Protocol: (§1) The synthetic C1 peptide and its analogues were tested using Standard disk susceptibility testing by National Committee for […] Laboratory Standards (NCCLS) against, S. aureus, E. coli and S. pneumoniae. […]

2B4.11 cells = assay: T-cell activation with H57-597 antibody (TCRβ chain crosslinking), IL-2 production; type: cell-based; conditions: H57-597 0.5 μg/mL with LK cells; 50 μM; relative to DMSO control; ±SD
Protocol: To analyse the mode of action of C1, T-cells were activated using 2C11-145 and H57-597 antibodies. The H57-597 antibody is directed against the TCRβ chain, and when administered at sub-optimal doses in conjunction with accessory cells (LK35.2), is capable of activating T cells. […] C1 was added to give a final reaction volume of 250 μL at 50 μM and 0.5% DMSO.

S. aureus = type: cell-based
Protocol: as §1

2B4.11 hybridoma = assay: Antigen presentation assay (IL-2 produced in response to antigen); type: cell-based; conditions: for IL2 %: 50 μM, relative to DMSO control (100%); for IL-2 production, % of the solvent only control value: 0.5% DMSO, ±SD
allergic mice (OVA/OVA) = assay: Allergic airways disease (OVA) model: inflammatory cells in BALF; type: in vivo; set-up: key to Airway lymphocytes / Airway eosinophils / Airway macrophages / Airway inflammatory cells / Airway neutrophils: nc: no change; ↑: increase; ↓: decrease
[1] = type: physicochemical
Protocol: pH stability was also investigated. C1 (2 μg/μl) was incubated at 30° C. for three days at pH 3, 7 and 10. Samples were taken after each day and analysed by mass spectrometry.

[2] = 200 μg s.c. during challenge, allergic mice
[3] = 200 μg/100 μl s.c. during OVA challenge, compared to OVA/OVA alone

For `CC(C)C[C@@H]1NC(=O)[C@@H](CC(C)C)NC(=O)[C@H](CCCNC(=N)N)NC(=O)[C@@H](CC(C)C)NC(=O)CNC(=O)[C@@H](C(C)C)NC(=O)[C@H](CCCCN)NC(=O)[C@@H](CC(C)C)NC(=O)[C@H](CC(C)C)NC(=O)[C@@H](CC(C)C)NC1=O` [C1, LDRLDLLDLLDKVDG], the “antimicrobial activity, E. coli” value (E. coli; peptide 10 μg/ml) was “−ve”, the “antimicrobial activity, E. coli” value (E. coli; peptide 100 μg/ml) was “−ve” and the “antimicrobial activity, E. coli” value (E. coli; peptide 1000 μg/ml) was “−ve”. For the same compound, the IL-2 production (2B4.11 cells) was 54.02%+/−9.32, the “MIC against S. aureus” value (S. aureus) was 100 µg/mL (≈ 89.3 µM) and the “antimicrobial activity, S. aureus” value (S. aureus; peptide 10 μg/ml) was “−ve”. The “antimicrobial activity, S. aureus” value (S. aureus; peptide 100 μg/ml) was “+ve”, the “antimicrobial activity, S. aureus” value (S. aureus; peptide 1000 μg/ml) was “+ve” and the “% Ave IL2 Production” value (2B4.11 hybridoma; average, Tables 1-3) was 17%. The IL2 % (2B4.11 hybridoma; fifth IL2 column (individual experiment in triplicate)) was 15.6%, the IL2 % (2B4.11 hybridoma; fourth IL2 column (individual experiment in triplicate)) was 18.9% and the “IL-2 production, % of the solvent only control value” (2B4.11 hybridoma; peptide 25 μM) was 59.69%±23.54. The “IL-2 production, % of the solvent only control value” (2B4.11 hybridoma; peptide 50 μM) was 7.73%±4.97, the “eosinophils in BALF” value (allergic mice (OVA/OVA); [2]) was “decrease” and the “total inflammatory cell counts in bronchoalveolar lavage fluid (BALF)” value (allergic mice (OVA/OVA); [2]) was “significantly decreased”. The Airway eosinophils (allergic mice (OVA/OVA); [3]) was “↓”, the Airway inflammatory cells (allergic mice (OVA/OVA); [3]) was “↓” and the Airway lymphocytes (allergic mice (OVA/OVA); [3]) was “nc”. The Airway macrophages (allergic mice (OVA/OVA); [3]) was “nc”, the Airway neutrophils (allergic mice (OVA/OVA); [3]) was “nc” and the “pH range over which stable” value [1] was 1-11 pH.
